The test system of assay [1] is HCV genotype 3a NS5A chimeric replicon. As to the kind of experiment: Replicon assay against NS5A sequence of genotype 3a, intergenotypic chimera. The settings on record: Hepatitis C virus, read-out: Genotype 3a. Format: cell-based. The protocol: (§1) Assay 4: Replicon Assays Against NS5A Sequences of Other Genotypes
(§2) Potencies of test compounds against NS5A sequences of other genotypes were determined by creating intergenotypic chimeras. The entire NS5A gene from genotypes 2a, 2b, 3a, 4a, 5a, and 6a, or the nucleotide sequence encoding amino acids 11-118 of NS5A, was subcloned into a genotype 1b replicon. For genotype 2a, intergenotypic chimeras with both the JFH and the J6 strain were created. […] Since the majority of genotype 2a sequences in public databases contain the L31M sequence variant, the use of the J6 genotype 2a sequence may better reflect the antiviral potency of NS5A inhibitors.
(§3) These chimeric replicon plasmids were then linearized and in vitro transcribed to RNA. The RNA was used to transiently or stably transfect Huh-LUNET cells by electroporation, and the potencies of test compounds against the chimeras were determined as previously described.
For orientation: A replicon is a self-replicating genome or part of one, used to study replication in cells.

The subject of assay [2] is HCV genotype 1a Y93H resistant mutant replicon. As to the kind of experiment: Replicon assay against resistant mutant 1a Y93H (transient transfection). To be noted: Hepatitis C virus, read-out: Genotype 1a Y93H. Type of assay: cell-based. As to the method:
Assay 3: Replicon Assays Against Resistant Mutants […]
Potencies of test compounds against additional mutations of interest were determined using transient transfection assays. These mutants included genotype 1a Y93C, Y93H, M28T, Q30E, Q30K, L31M, and Y93N. The mutation was first introduced into the parental plasmid by site-directed mutagenesis. The replicon plasmid was then linearized and in vitro transcribed to RNA. The RNA was used to transiently transfect Huh-LUNET cells (obtained from ReBLikon GmbH, Schriesheim, Germany) by electroporation, and the potencies of test compounds against the mutants were determined as previously described.

The test system of another assay is HCV genotype 1a replicon. As to the kind of experiment: HCV genotype 1a replicon assay (NS3 protease activity readout). Type of assay: cell-based, hepatitis C virus. To be noted: for pEC50: Hepatitis C virus, read-out: Genotype 1a, HCV genotype 1a replicon; for Genotype 1a: HCV genotype 1a replicon. The procedure, abridged: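 EC50 values came from a 4-parameter robust fit of fluorescence (ex 340, em 509 nm) produced by NS3-specific protease in lysates, assayed with 15 μM FRET substrate for 20 min at 37° C, after 48 or 72 hours of compound exposure (0.5% DMSO) of Huh7.5-derived APC89 genotype 1a replicon cells.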

A further assay concerns HCV genotype 1b replicon. Briefly: HCV genotype 1b replicon assay (Renilla luciferase readout). The settings on record: for pEC50: Hepatitis C virus, read-out: Genotype 1b; for Genotype 1b: HCV genotype 1b replicon. Format: cell-based, hepatitis C virus. The method in brief:
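Reported as pEC50 derived from a 4-parameter fit of Renilla luciferase activity against concentration. Replicon cells (APC144, Huh7 background) were exposed to compound for 48 h in G418-free medium with final 0.5% DMSO, after seeding at 10,000 cells/well and 4 h adherence.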

The test system of assay [3] is HCV genotype 2a (J6 strain) NS5A chimeric replicon. As to the kind of experiment: Replicon assay against NS5A sequence of genotype 2a (J6 strain), intergenotypic chimera. Format: cell-based. To be noted: Hepatitis C virus, read-out: Genotype 2a (J6). As to the method: as §1, §2, §3

Structures are written as SMILES. pEC50: −log10 of the molar value.

For `COC(=O)N[C@H](C(=O)N1C[C@@H](C)C[C@H]1c1nc(-c2ccc(-c3ccc(C(=O)Nc4ccc(N5CCN(C(=O)C(C)(C)C)C[C@H]5C)nc4)cc3OC(F)(F)F)cc2)c(Cl)[nH]1)C(C)C` [Example 12, ((S)-1-{(2S,4S)-2-[5-Chloro-4-(4′-{6-[(R)-4-(2,2-dimethyl-propionyl)-2-methyl-piperazin-1-yl]-pyridin-3-ylcarbamoyl}-2′-trifluoromethoxy-biphenyl-4-yl)-1H-imidazol-2-yl]-4-methyl-pyrrolidine-1-carbonyl}-2-methyl-propyl)-carbamic acid methyl ester], the pEC50 was 8.00 to 9.00 in assay [1]; 8.00 to 9.00 in assay [2]; above 10.00 with HCV genotype 1a replicon; above 10.00 in the assay on HCV genotype 1b replicon; 8.00 to 9.00 in assay [3].
Consider `COC(=O)N[C@H](C(=O)N1C[C@@H](C)C[C@H]1c1nc(-c2ccc(-c3cc(Cl)c(NC(=O)c4ccc(N5CCN(C(=O)C(C)(C)C)C[C@H]5C)nc4)cc3OC(F)(F)F)cc2)c[nH]1)C(C)C` [Example 10, [(S)-1-((2S,4S)-2-{4-[5′-Chloro-4′-({6-[(R)-4-(2,2-dimethyl-propionyl)-2-methyl-piperazin-1-yl]-pyridine-3-carbonyl}-amino)-2′-trifluoromethoxy-biphenyl-4-yl]-1H-imidazol-2-yl}-4-methyl-pyrrolidine-1-carbonyl)-2-methyl-propyl]-carbamic acid methyl ester], for which the pEC50 was 8.00 to 9.00 in assay [1]; 8.00 to 9.00 in assay [2]; above 10.00 with HCV genotype 1a replicon; above 10.00 with HCV genotype 1b replicon; 8.00 to 9.00 in assay [3].
Consider `COC(=O)N[C@H](C(=O)N1C[C@@H](C#N)C[C@H]1c1nc(-c2ccc(-c3cc(Cl)c(NC(=O)c4ccc(N5CCN(C(=O)OC(C)(C)C)C[C@H]5C)nc4)cc3OC(F)(F)F)cc2)c[nH]1)C(C)C` [Example 17, (R)-4-[5-(5-Chloro-4′-{2-[(2S,4S)-4-cyano-1-((S)-2-methoxycarbonylamino-3-methyl-butyryl)-pyrrolidin-2-yl]-1H-imidazol-4-yl}-2-trifluoromethoxy-biphenyl-4-ylcarbamoyl)-pyridin-2-yl]-3-methyl-piperazine-1-carboxylic acid tert-butyl ester], for which the pEC50 is 6.00 to 8.00 in assay [1], 6.00 to 8.00 in assay [2], 9.00 to 10.00 in the assay on HCV genotype 1a replicon and 6.00 to 8.00 in assay [3].
Turning to `COC(=O)N[C@H](C(=O)N1C[C@@H](C)C[C@H]1c1nc(-c2ccc(-c3cc(Cl)c(NC(=O)c4ccc(N5CCN(C(=O)[C@H]6CC6(C)C)C[C@H]5C)nc4)cc3OC(F)(F)F)cc2)c[nH]1)C(C)C` [Example 2, [(S)-1-((2S,4S)-2-{4-[5′-Chloro-4′-({6-[(R)-4-((S)-2,2-dimethyl-cyclopropanecarbonyl)-2-methyl-piperazin-1-yl]-pyridine-3-carbonyl}-amino)-2′-trifluoromethoxy-biphenyl-4-yl]-1H-imidazol-2-yl}-4-methyl-pyrrolidine-1-carbonyl)-2-methyl-propyl]-carbamic acid methyl ester], the pEC50 is 8.00 to 9.00 in assay [1], above 10.00 in the assay on HCV genotype 1a replicon, above 10.00 with HCV genotype 1b replicon and 8.00 to 9.00 in assay [3].
As for `COC(=O)N[C@H](C(=O)N1C[C@@H](SC)C[C@H]1c1nc(-c2ccc(-c3ccc(C(=O)Nc4ccc(N5CCN(C(=O)[C@H]6CC6(C)C)C[C@H]5C)nc4)cc3OC(F)(F)F)cc2)c[nH]1)C(C)C` [Example 9, ((S)-1-{(2S,4S)-2-[4-(4′-{6-[(R)-4-((S)-2,2-Dimethyl-cyclopropanecarbonyl)-2-methyl-piperazin-1-yl]-pyridin-3-ylcarbamoyl}-2′-trifluoromethoxy-biphenyl-4-yl)-1H-imidazol-2-yl]-4-methylsulfanyl-pyrrolidine-1-carbonyl}-2-methyl-propyl)-carbamic acid methyl ester], the pEC50 in assay [1] is 6.00 to 8.00; in the assay on HCV genotype 1a replicon, above 10.00; with HCV genotype 1b replicon, above 10.00; in assay [3], 6.00 to 8.00.
With `COC(=O)N[C@H](C(=O)N1C[C@@H](C)C[C@H]1c1nc(-c2ccc(-c3ccc(C(=O)Nc4ccc(N5C[C@H](C)N(C(=O)[C@H]6CC6(C)C)C[C@H]5C)nc4)cc3OC(F)(F)F)cc2)c[nH]1)C(C)C` [Example 7, ((S)-1-{(2S,4S)-2-[4-(4′-{6-[(2R,5S)-4-((S)-2,2-Dimethyl-cyclopropanecarbonyl)-2,5-dimethyl-piperazin-1-yl]-pyridin-3-ylcarbamoyl}-2′-trifluoromethoxy-biphenyl-4-yl)-1H-imidazol-2-yl]-4-methyl-pyrrolidine-1-carbonyl}-2-methyl-propyl)-carbamic acid methyl ester], the pEC50 in assay [1] is 6.00 to 8.00; in the assay on HCV genotype 1a replicon, above 10.00; with HCV genotype 1b replicon, above 10.00; in assay [3] it was 6.00 to 8.00.
With `COC(=O)N[C@H](C(=O)N1[C@H](c2nc(-c3ccc(-c4ccc(C(=O)Nc5ccc(N6CCN(C(=O)C7CC7(C)C)C[C@H]6C)nc5)cc4OC(F)(F)F)cc3)c[nH]2)C[C@@H]2CCCC[C@@H]21)C(C)C` (stereo partly shown) [Example 6-12], the pEC50 in the assay on HCV genotype 1a replicon is 9.00 to 10.00; in the assay on HCV genotype 1b replicon, above 10.00.
In the case of `COC(=O)N[C@H](C(=O)N1C[C@@H](C)C[C@H]1c1nc(-c2ccc(-c3cc(Cl)c(C(=O)Nc4ccc(N5CCN(C(=O)C(C)(C)CO)C[C@H]5C)nc4)cc3OC(F)(F)F)cc2)c(Cl)[nH]1)C1CCOCC1` [Example 22-9], the pEC50 with HCV genotype 1a replicon and with HCV genotype 1b replicon was above 10.00 each time.
As for `COC[C@H]1CN(c2ccc(C(=O)Nc3cc(OC(F)(F)F)c(-c4ccc(-c5c[nH]c([C@@H]6C[C@H](C)CN6C(=O)[C@@H](NC(=O)OC)C6CCOCC6)n5)cc4)cc3Cl)cn2)CCN1C(=O)C(C)(C)C` [Example 20-7], the “Genotype 1a” value with HCV genotype 1a replicon was “D (D represents pEC50>10 (EC50<0.1 nM))”. Also, the “Genotype 1b” value at HCV genotype 1b replicon was “D (D represents pEC50>10 (EC50<0.1 nM))”.
For the molecule `COC(=O)N[C@H](C(=O)N1C[C@@H](OC)C[C@H]1c1nc(-c2ccc(-c3ccc(C(=O)Nc4ccc(N5CCN(C(=O)C(C)(C)C)C[C@H]5C)nc4)cc3)cc2)c[nH]1)C1CCOCC1` [Example 22-13], the “Genotype 1a” value with HCV genotype 1a replicon is given as “D (D represents pEC50>10 (EC50<0.1 nM))”. Further, the “Genotype 1b” value at HCV genotype 1b replicon is recorded as “D (D represents pEC50>10 (EC50<0.1 nM))”.
For the molecule `COC(=O)N[C@H](C(=O)N1C[C@@H](C)C[C@H]1c1nc(-c2ccc(-c3cc(Cl)c(NC(=O)c4ccc(N5CCN(C(=O)C67CC(CO)(C6)C7)C[C@H]5C)nc4)cc3OC(F)(F)F)cc2)c[nH]1)C(C)C` [Example 12-50], the pEC50 in the assay on HCV genotype 1a replicon and with HCV genotype 1b replicon was above 10.00 in each case.
With `CNC(=O)N1CCC[C@@]1(C)C(=O)N1CCN(c2ccc(NC(=O)c3ccc(-c4ccc(-c5c[nH]c([C@@H]6C[C@H](C)CN6C(=O)[C@@H](NC(=O)OC)C(C)C)n5)cc4)c(OC(F)(F)F)c3)cn2)[C@H](C)C1` [Example 4-6], the “Genotype 1a” value in the assay on HCV genotype 1a replicon was “D (D represents pEC50>10 (EC50<0.1 nM))”. In addition, at HCV genotype 1b replicon, the “Genotype 1b” value is on record as “D (D represents pEC50>10 (EC50<0.1 nM))”.
In the case of `COC(=O)N[C@H](C(=O)N1C[C@@H](OC)C[C@H]1c1nc(-c2ccc(-c3cc(Cl)c(NC(=O)c4ccc(N5CCN(C(=O)C(C)(C)C)C[C@H]5C)nc4)cc3OC(F)(F)F)cc2)c[nH]1)[C@H](C)O` [Example 16-2], the “Genotype 1a” value with HCV genotype 1a replicon is listed as “D (D represents pEC50>10 (EC50<0.1 nM))”. For the same molecule, the “Genotype 1b” value at HCV genotype 1b replicon was “D (D represents pEC50>10 (EC50<0.1 nM))”.
Consider `COC(=O)N[C@H](C(=O)N1C[C@@H](C)C[C@H]1c1nc(-c2ccc(-c3cc(Cl)c(NC(=O)c4ccc(N5CCN(C(=O)C(C)(C)CO)C[C@H]5C)nc4)cc3OC(F)(F)F)cc2)c[nH]1)[C@H](C)O` [Example 13-17], for which the pEC50 with HCV genotype 1a replicon and with HCV genotype 1b replicon was above 10.00 each time.
As for `COC(=O)NC(C(=O)N1CC(OC)CC1c1nc(-c2ccc(-c3cc(Cl)c(NC(=O)c4ccc(N5CCN(C(=O)C(C)(C)CO)CC5C)nc4)cc3OC(F)(F)F)cc2)c[nH]1)C(C)O` (stereo not shown) [Example 16-7], the “Genotype 1a” value in the assay on HCV genotype 1a replicon is reported as “D (D represents pEC50>10 (EC50<0.1 nM))”. In addition, the “Genotype 1b” value on HCV genotype 1b replicon is “D (D represents pEC50>10 (EC50<0.1 nM))”.
In the case of `COC(=O)N[C@H](C(=O)N1C[C@@H](C)C[C@H]1c1nc(-c2ccc(-c3ccc(C(=O)Nc4ccc(N5CCN(C(=O)C(C)(C)CO)C[C@H]5C)nc4)cc3OC(F)(F)F)cc2)c(Cl)[nH]1)C1CCOCC1` [Example 22-8], the “Genotype 1a” value with HCV genotype 1a replicon is recorded as “D (D represents pEC50>10 (EC50<0.1 nM))”. Moreover, the “Genotype 1b” value at HCV genotype 1b replicon is “D (D represents pEC50>10 (EC50<0.1 nM))”.

These data come from patent publication US9212168B2 (priority 2011, dated 2015).
